Reference: ChEMBL document CHEMBL1687706, “Inhibition of human immunodeficiency virus type 1 replication in human cells by Debio-025, a novel cyclophilin binding agent” (Antimicrob Agents Chemother, 2008)
Activity calls are given as the source filed them. The calls are words filed in the database; no cut-off is given here.

Tests used:
[1] = test system: Human immunodeficiency virus 1; test: Antiviral activity against HIV1 subtype B Ba-L infected in human PBMC assessed as inhibition of viral replication by ELISA; format: functional, organism-based; conditions: Human immunodeficiency virus 1, subtype B Ba-L
[2] = Cytotoxicity against CRFK; design: species or system Felis catus; conditions: cat, CRFK cells; read-out: TC50 (the source's name)
[3] = test system: Human immunodeficiency virus 1; test: Antiviral activity against LPV, APV, ATV, IDV, NFV, RTV, SQV, AZT, ddI, 3TC, d4T-resistant HIV-1 MDR3761 infected in human PBMC assessed as inhibition of viral replication by ELISA; format: functional, organism-based; conditions: Human immunodeficiency virus 1, MDR3761
Human alphaherpesvirus 2 = test: Antiviral activity against Herpes simplex virus 2 Lyons infected in human embryonic lung cells assessed as inhibition of viral replication; format: functional, organism-based; conditions: Human alphaherpesvirus 2, Lyons
[4] = test system: Human immunodeficiency virus 2; test: Antiviral activity against HIV-2 isolate CDC310319 infected in human PBMC assessed as inhibition of viral replication; format: functional, organism-based; conditions: Human immunodeficiency virus 2, isolate CDC310319
Rattus norvegicus [5] = test: Immunosuppressive activity in Sprague-Dawley rat KHL model assessed as percent T-helper cells at 50 mg/kg, po administered once daily for 28 days by flow cytometry; format: functional
[6] = Antiviral activity against HPV-33 infected in CK1 cells assessed as inhibition of viral replication after 7 days; format: functional, Human papillomavirus type 33; conditions: human papillomavirus 33, CK1, 168 h; read-out: TC50 (the source's name)
Human alphaherpesvirus 1 [7] = test: Antiviral activity against Herpes simplex virus 1 McIntyre infected in human embryonic lung cells assessed as inhibition of viral replication; format: functional, organism-based; conditions: Human alphaherpesvirus 1, McIntyre
[8] = test system: Human immunodeficiency virus 1; test: Antiviral activity against HIV1 subtype EA CMU02 infected in human PBMC assessed as inhibition of viral replication by ELISA; format: functional, organism-based; conditions: Human immunodeficiency virus 1, subtype EA CMU02
[9] = test system: Simian immunodeficiency virus; test: Antiviral activity against Simian immunodeficiency virus PBj infected in human PBMC assessed as inhibition of viral replication by RT activity; format: functional, organism-based
[10] = test system: Human immunodeficiency virus 1; test: microbe, parasite or virus in culture; conditions: Human immunodeficiency virus 1, 3B, MT4
Rattus norvegicus [11] = test: Immunosuppressive activity in Sprague-Dawley rat KHL model assessed as percent cytotoxic T cells at 50 mg/kg, po administered once daily for 28 days by flow cytometry; format: functional, T-cell
[12] = Antiviral activity against HPV-18 infected in human HeLa cells assessed as inhibition of viral replication after 7 days; format: functional; conditions: human papillomavirus 18, HeLa, 168 h; read-out: TC50 (the source's name)
Vaccinia virus = test: Antiviral activity against Vaccinia virus infected in human embryonic lung cells assessed as reduction in viral yield measured after 3 days; format: functional, organism-based; conditions: Orthopoxvirus vaccinia, 72 h
Jurkat = test: Immunosuppressive activity in human Jurkat cells assessed as inhibition of PHA-phorbol myristate acetate induced beta-galactosidase activity at 21.5 uM; format: functional, cell-based
PBMC = test: Cytotoxicity against human PBMC at 0.83 uM by MTT assay; format: cell-based
[13] = test system: Human immunodeficiency virus 1; test: Antiviral activity against LPV, APV, ATV, IDV, NFV, RTV, SQV-resistant HIV-1 52-52 infected in human PBMC assessed as inhibition of viral replication by ELISA; format: functional, organism-based; conditions: Human immunodeficiency virus 1, 52-52
[14] = test system: Human immunodeficiency virus 1; test: Antiviral activity against HIV-1 NL4-3 infected in human TZB cells assessed as inhibitory effect on the completion of viral double stranded DNA at 0.5 to 2.5 uM by RT-PCR; format: functional, organism-based
[15] = Cytotoxicity against human embryonic lung cells; format: cell-based; conditions: read-out: TC50 (the source's name)
[16] = Antiviral activity against Simian immunodeficiency virus-mac 251 infected in human PBMC assessed as inhibition of viral replication by RT activity; format: functional
[17] = test system: Human immunodeficiency virus 1; test: Antiviral activity against ABC, ddC, ddI, TDF, AZT, d4T-resistant HIV-1 G910-6 infected in human PBMC assessed as inhibition of viral replication by ELISA; format: functional, organism-based; conditions: Human immunodeficiency virus 1, G910-6
[18] = Cytotoxicity against human Huh 5.2 cells; format: cell-based, Huh-5-2; conditions: read-out: TC50 (the source's name)
Rattus norvegicus [19] = test: Immunosuppressive activity in Sprague-Dawley rat KHL model assessed as percent cytotoxic T cells at 10 mg/kg, po administered once daily for 28 days by flow cytometry; format: functional, T-cell
[20] = test system: Human immunodeficiency virus 1; test: Antiviral activity against HIV1 subtype B NL4-3 infected in human PBMC assessed as inhibition of viral replication by ELISA; format: functional, organism-based; conditions: Human immunodeficiency virus 1, subtype B NL4-3
[21] = test system: Bovine viral diarrhea virus 1; test: Antiviral activity against BVDV infected in […] cells assessed as inhibition of viral replication; format: functional, organism-based; conditions: Bovine viral diarrhea virus isolates and strains
[22] = test system: Human immunodeficiency virus 1; test: Antiviral activity against APV, ATV, IDV, LPV, NFV, RTV, SQV, 3TC, FTC, ABC, AZT, d4T, ddC, ddI, TDF, EFV, DLV, NVP-resistant HIV-1 MDR769 infected in human PBMC assessed as inhibition of viral replication by ELISA; format: functional, organism-based; conditions: Human immunodeficiency virus 1, MDR769
Rattus norvegicus [23] = test: Immunosuppressive activity in Sprague-Dawley rat […] model assessed as IgM level at 10 mg/kg, po administered once daily for 28 days by ELISA; format: functional
Human alphaherpesvirus 3 = test: Antiviral activity against VZV OKA infected in human embryonic lung cells assessed as inhibition of; format: functional, organism-based; conditions: Human alphaherpesvirus 3, OKA
[24] = test system: Human immunodeficiency virus 1; test: Antiviral activity against HIV1 subtype O BCF01 infected in human PBMC assessed as inhibition of viral replication by ELISA; format: functional, organism-based; conditions: Human immunodeficiency virus 1, subtype O BCF01
Influenza A virus = test: Antiviral activity against Influenza A virus H3N2 infected in MDCK cells assessed as inhibition of viral replication; format: functional, organism-based
Yellow fever virus = test: Antiviral activity against Yellow fever virus 17D infected in african green monkey Vero cells assessed as inhibition of viral replication; format: functional, cell-based
SARS-CoV = test: Antiviral activity against SARS coronavirus infected in african green monkey Vero cells assessed as inhibition of viral replication; format: functional, organism-based; conditions: Severe acute respiratory syndrome-related coronavirus
[25] = test system: Human immunodeficiency virus 1; test: Antiviral activity against HIV1 subtype B SF162 infected in human PBMC assessed as inhibition of viral replication by ELISA; format: functional; conditions: Human immunodeficiency virus 1, SF162 ISOLATE
[26] = Cytotoxicity against african green monkey Vero cells; format: cell-based; conditions: chlorocebus sabaeus, read-out: TC50 (the source's name)
Human respirovirus 3 = test: Antiviral activity against Parainfluenza 3 infected in african green monkey Vero cells assessed as inhibition of viral replication; format: functional, organism-based; conditions: Human respirovirus 3, Vero
[27] = test system: Human immunodeficiency virus 1; test: Antiviral activity against HIV1 subtype B SLKA infected in human PBMC assessed as inhibition of viral replication by ELISA; format: functional, organism-based; conditions: Human immunodeficiency virus 1, subtype B SLKA
MT4 = test: Cytotoxicity against human MT4 cells at 0.83 uM by MTT assay; format: cell-based; conditions: mt4, 0.83 µM
Human alphaherpesvirus 1 [28] = test: Antiviral activity against Herpes simplex virus 1 F infected in human embryonic lung cells assessed as inhibition of viral replication; format: functional, organism-based; conditions: Human alphaherpesvirus 1, strain F
[29] = Cytotoxicity against human HepAD38 cells; format: cell-based; conditions: read-out: TC50 (the source's name)

For `C/C=C/C[C@@H](C)[C@@H](O)[C@H]1C(=O)N[C@@H](CC)C(=O)N(C)[C@H](C)C(=O)N(CC)[C@@H](C(C)C)C(=O)N[C@@H](C(C)C)C(=O)N(C)[C@@H](CC(C)C)C(=O)N[C@@H](C)C(=O)N[C@H](C)C(=O)N(C)[C@@H](CC(C)C)C(=O)N(C)[C@@H](CC(C)C)C(=O)N(C)[C@@H](C(C)C)C(=O)N1C` [ALISPORIVIR], which IC50 [1] is on record?
The IC50 was 3.53 µM.

What about the CC50 [2] of the same compound?
Its CC50 is 10.6 µM.

What about the IC50 [3] of the same compound?
Its IC50 is 0.16 µM.

And the IC50 (Human alphaherpesvirus 2)?
The IC50 was over 25 µM.

What about the IC50 [4] of the same compound?
Its IC50 is 10.5 µM.

And the Activity (Rattus norvegicus [5])?
Its Activity is 32.8%.

What about the CC50 [6] of the same compound?
The CC50 was 0.6 µM.

What about the IC50 (Human alphaherpesvirus 1 [7]) of the same compound?
Its IC50 is over 25 µM.

What about the IC50 [8] of the same compound?
Its IC50 is 5.66 µM.

And the IC50 [9]?
Its IC50 is 7.97 µM.

And the IC50 [10]?
Its IC50 is 0.099 µM.

What about the Activity (Rattus norvegicus [11]) of the same compound?
Its Activity is 16.1%.

What about the CC50 [12] of the same compound?
The CC50 was 3.3 µM.

What about the IC50 (Vaccinia virus) of the same compound?
The IC50 was over 25 µM.

What about the inhibition (Jurkat) of the same compound?
Its inhibition is “Active”.

What about the Activity (PBMC) of the same compound?
Its Activity is “Non-toxic”.

What about the IC50 [13] of the same compound?
Its IC50 is 3.12 µM.

What about the inhibition [14] of the same compound?
Its inhibition is “Active”.

And the CC50 [15]?
The CC50 was 25 µM.

And the IC50 [16]?
The IC50 was 8.24 µM.

And the IC50 [17]?
The IC50 was 0.029 µM.

And the CC50 [18]?
The CC50 was 22 µM.

What about the Activity (Rattus norvegicus [19]) of the same compound?
The Activity was 17.6%.

And the IC50 [20]?
The IC50 was 0.01 µM.

What about the IC50 [21] of the same compound?
The IC50 was over 25 µM.

And the IC50 [22]?
Its IC50 is 0.012 µM.

And the deltaA (Rattus norvegicus [23])?
Its deltaA is 0.78.

And the IC50 (Human alphaherpesvirus 3)?
Its IC50 is 2.5 µM.

And the IC50 [24]?
The IC50 was 6.25 µM.

And the IC50 (Influenza A virus)?
The IC50 was over 9.9 µM.

What about the IC50 (Yellow fever virus) of the same compound?
Its IC50 is over 16.6 µM.

And the IC50 (SARS-CoV)?
The IC50 was 7.7 µM.

What about the IC50 [25] of the same compound?
The IC50 was 0.015 µM.

What about the CC50 [26] of the same compound?
The CC50 was 16.6 µM.

And the IC50 (Human respirovirus 3)?
Its IC50 is over 25 µM.

And the IC50 [27]?
Its IC50 is 0.025 µM.

And the Activity (MT4)?
The Activity was “Non-toxic”.

What about the IC50 (Human alphaherpesvirus 1 [28]) of the same compound?
The IC50 was over 25 µM.

What about the CC50 [29] of the same compound?
The CC50 was 16.4 µM.
